{"source": "ChEMBL document CHEMBL4715920", "about": "“Novel Spiropiperidine Allosteric Modulators of Nicotinic Acetylcholine Receptors for Treating Central Nervous System Disorders” (ACS Med Chem Lett, 2021)"}
{"target": "Neuronal acetylcholine receptor subunit alpha-7 (Homo sapiens, UniProt P36544)", "sequence (P36544 whole entry)": "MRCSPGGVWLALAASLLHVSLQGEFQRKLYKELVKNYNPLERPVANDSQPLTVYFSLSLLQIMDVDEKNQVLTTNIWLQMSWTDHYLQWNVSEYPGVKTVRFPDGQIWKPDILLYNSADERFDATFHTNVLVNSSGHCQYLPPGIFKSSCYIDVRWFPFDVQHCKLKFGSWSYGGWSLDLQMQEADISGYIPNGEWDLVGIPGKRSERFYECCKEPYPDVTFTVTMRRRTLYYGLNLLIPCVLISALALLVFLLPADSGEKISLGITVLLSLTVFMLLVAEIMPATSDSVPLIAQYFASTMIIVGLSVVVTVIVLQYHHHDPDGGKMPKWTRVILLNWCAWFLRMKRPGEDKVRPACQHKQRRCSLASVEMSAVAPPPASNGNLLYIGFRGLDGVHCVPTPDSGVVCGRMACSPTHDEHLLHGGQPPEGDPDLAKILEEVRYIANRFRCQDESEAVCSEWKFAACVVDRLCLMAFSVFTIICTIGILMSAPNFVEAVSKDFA", "assay": "Positive allosteric modulation of recombinant human AChR alpha7 expressed in HEK cells co-expressing RIC-3 at -60 mV holding potential treated for 58 sec followed by acetylcholine applied for 1 sec measured potentiation effect by automated patch clamp electrophysiological method", "format": "cell-based", "units": {"EC50": "µM"}}
{"smiles": "COc1ccc(Cl)cc1NC[C@@H]1CC12CCN(S(N)(=O)=O)CC2", "EC50": "≤ 0.1"}
{"smiles": "NS(=O)(=O)N1CCC2(CC1)C[C@H]2COc1cccc(NCC(F)(F)F)n1", "EC50": "≤ 0.1"}
{"smiles": "COc1ccc(Cl)cc1SC[C@@H]1CC12CCN(S(N)(=O)=O)CC2", "EC50": "≤ 0.1"}
{"smiles": "COc1ccc(Cl)cc1NC(=O)[C@@H]1C(F)(F)C12CCN(S(N)(=O)=O)CC2", "EC50": "≤ 0.1"}
{"smiles": "NS(=O)(=O)N1CCC2(CC1)C(COc1ccnc(OC(F)F)c1)C2(F)F", "note": "(stereo unspecified)", "EC50": "≤ 0.1"}
{"smiles": "NS(=O)(=O)N1CCC2(CC1)C(COc1noc(-c3ccccc3)n1)C2(F)F", "note": "(stereo unspecified)", "EC50": "≤ 0.1"}
